Results taken from patent US20110263429A1, “Pesticidal Combinations” (priority 2008, published 2011).

Tests used:
[1] = system: cutworm (Spodoptera littoralis); assay: Field seed-treatment trial, plant count per plot; format: in vivo; settings: field with heavy Spodoptera littoralis population, plants per plot counted 13 days after planting, 4 replicates, fludioxonil + mefenoxam base treatment
Text: (§1) An unexpected effect exists whenever the action of an active ingredient combination is greater than the sum of the actions of the individual components.
(§2) The action to be expected E for a given active ingredient combination obeys the so-called COLBY formula and can be calculated as follows (COLBY, S. R. “Calculating synergistic and antagonistic responses of herbicide combination”. Weeds, Vol. 15, pages 20-22; 1967):
(§3) ppm=milligrams of active ingredient (=a.i.) per liter of spray mixture X=% action by active ingredient A) using p ppm of active ingredient Y=% action by active ingredient B) using q ppm of active ingredient.
(§4) According to COLBY, the expected (additive) action of active ingredients A)+B) using p+q ppm of active ingredient is
(§5) If the action actually observed (O) is greater than the expected action (E), then the action of the combination is super-additive, i.e. there is a synergistic effect.
In a field having a heavy population of cutworm (Spodoptera littoralis), seeds are planted that have the following treatments: • (a) a compound of formula (X) (0.6 mg ai/seed) • (b) thiamethoxam (0.63 mg ai/seed) • (c) a compound of formula (X) (0.6 mg ai/seed)+thiamethoxam (0.63 mg ai/seed)
For all treatments, including check, fludioxonil (2.5 g ai/100 kg seeds) and mefenoxam (1.0 g ai/100 kg seeds) were used as a fungicide base treatment. […]

cutworm (Agrotis sp.) = assay: Field seed-treatment trial, cutworm larvae count per plot; format: in vivo; settings: for Control (%) Observed: seed treatment, field with heavy Agrotis sp. population, larvae per plot counted 22 days after planting, 4 replicates, fludioxonil + mefenoxam base treatment
Text: as §1, §2, §3, §4, §5
In a field having a heavy population of cutworm (Agrotis sp.), seeds are planted that have the following treatments: • (a) a compound of formula (X) (0.6 mg ai/seed) • (b) thiamethoxam (0.63 mg ai/seed) • (c) a compound of formula (X) (0.6 mg ai/seed)+thiamethoxam (0.63 mg ai/seed)
For all treatments, including check, fludioxonil (2.5 g ai/100 kg seeds) and mefenoxam (1.0 g ai/100 kg seeds) were used as a fungicide base treatment.
Assessment: Count number larvae per plot (22 days after planting) Number of replicates: 4

## CN1COCN(Cc2cnc(Cl)s2)/C1=N\[N+](=O)[O-] [(b), thiamethoxam]
[1]
  % Control Observed: 40%
Cutworm (Agrotis sp.)
  Control (%) Observed: 31%

## mixture of 5,6-Dihydro-3′-O-ethyl Spinosyn J (RN: 187166-40-1 and 3′-O-Ethyl Spinosyn L (RN: 187166-15-0) in a weight ratio of 50-90%:10-50% [(a)]
[1]
  % Control Observed: 48%
Cutworm (Agrotis sp.); expected (additive) action by COLBY formula, Agrotis sp., 22 days after planting
  Control (%) Colby expected: 15%
Cutworm (Agrotis sp.)
  Control (%) Observed: 50%
